The subject of one series is HIVIIIB. In words: Antiviral Activity: anti-HIV activity in MT4 cells infected with HIVIIIB (MTT). Format: cell-based. The following applies: MOI 0.003, 5 days, n=four duplicate determinations. Put shortly: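 MT4 cells infected 1 h with HIVIIIB at 0.003 MOI, washed, seeded at 1×10^4 cells/well with half-log compound dilutions in RPMI 1640 plus 10% FBS and added human serum (final 60%, 35% or 22.5% total serum), 5 days at 37 °C. Viability read by MTT at 570/650 nm; EC50 by median effect equation, CTC50 on uninfected MT4 cells.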

A further series has as its system uninfected MT4 cells. In words: Cytotoxicity in uninfected MT4 cells (MTT). Format: cell-based. The following applies: 5 days, n=four duplicate determinations, read-out: CTC50 (50% cytotoxicity concentration). The method, boiled down: (§1)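 Uninfected MT4 cells, 1×10^4 per well, incubated 5 days at 37 °C with half-log compound dilutions. Viability read by MTT-type OD at 570/650 nm after SDS/HCl lysis overnight. CTC50 taken as 50% cytotoxicity concentration.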

The target of the next series is HIV-1 protease (Human immunodeficiency virus type 1 group M subtype B, UniProt P04585). The series is described as follows: Fluorogenic Assay for Screening Inhibitors of HIV Protease.
Series [1] is described as follows: Cytotoxicity in uninfected MT4 cells (MTT). It is filed as cell-based. The following applies: human, 5 days, n=four duplicate determinations, read-out: CTC50 (50% cytotoxicity concentration). The method, boiled down: as §1
Series [2] is described as follows: Effect of ritonavir on pharmacokinetics of the co-administered compound of this invention. It is filed as in vivo. The following applies: ritonavir in combination with a compound of this invention.
[3] abbreviates: Human immunodeficiency virus 1, 120 h.

Bounds are passed on as bounds.

One may read the EC50 as the concentration needed to bring the measured effect to its halfway point. Usually % Inhibition stands for the percentage by which the read-out fell short of the control. A low value points to little suppression. The term inhibition denotes how much of the control response was suppressed. Read a high inhibition as a response far below the control.

Method for HIV-1 protease: The inhibitory potency of the compounds of the invention were determined by the following method: The compound of the invention was dissolved in DMSO and a small aliquot further diluted with DMSO to 100 times the final concentration desired for testing. The reaction was carried out in a 6×50 mm tube in a total volume of 300 microliters. […] After addition of inhibitor, the reaction mixture was placed in the fluorometer cell holder and incubated at 30° C. for several minutes. The reaction was initiated by the addition of a small aliquot of cold HIV protease. The fluorescence intensity (excitation 340 nm, emission 490 nm) was recorded as a function of time. The reaction rate was determined for the first six to eight minutes. The observed rate was directly proportional to the moles of substrate cleaved per unit time. The percent inhibition was calculated according to the equation: 100×(1-(rate of inhibitor)/(rate in absence of inhibitor)). As a control, duplicate reactions were performed identically as above but without the addition of an inhibitor compound.

Take `Cc1ccc(OCC(=O)N[C@@H](Cc2ccccc2)C[C@H](O)[C@H](Cc2ccccc2)NC(=O)O[C@H]2CO[C@H]3OCC[C@H]32)c(C)n1` [Example 10, (2S,3S,5S)-5-(2,6-Dimethyl-pyridin-3-yl-oxyacetyl)amino-2-((3R,3aS,6aR)-bis-tetrahydrofuran-3-yl-oxycarbonyl)amino-1,6-diphenyl-3-hydroxyhexane]: the EC50 in the series on HIVIIIB stood at 184 nM. In addition, in the series on uninfected MT4 cells, the CC50 was over 100000 nM. Also, on HIV-1 protease (0.5 nM inhibitor, pH 4.5, 30° C.), the “% Inhibition” value is listed as 49%.

Consider `CC(C)c1nc(CN(C)C(=O)NC(C(=O)NC(Cc2ccccc2)CC(O)C(Cc2ccccc2)NC(=O)OC2COC3OCCC23)C(C)C)cs1` [Example 51, (2S,3S,5S)-5-(N-(N-((N-Methyl-N-((2-isopropyl-4-thiazolyl)methyl)amino)carbonyl)-D-valinyl)amino)-2-((3R,3aS,6aR)-bis-tetrahydrofuran-3-yl-oxycarbonyl)amino-1,6-diphenyl-3-hydroxyhexane], for which a half-maximal response in the series on HIVIIIB (setting [3]) (EC50) required 12 nM. In series [1], the CC50 at 120 h is over 100000 nM. For the same molecule, the inhibition at 0.0005 µM against HIV-1 protease (pH 4.5) was found to be 83%.

Turning to `Cc1nc(CN(C)C(=O)N[C@H](C(=O)N[C@@H](Cc2ccccc2)C[C@H](O)[C@H](Cc2ccccc2)NC(=O)OC2COC3OCCC23)C(C)C)cs1` (stereo partly drawn) [Example 52, (2S,3S,5S)-5-(N-(N-((N-Methyl-N-((2-methyl-4-thiazolyl)methyl)amino)carbonyl)-L-valinyl)amino)-2-((3R,3aS,6aR),(3S,3aR,6aS)-bis-tetrahydrofuran-3-yl-oxycarbonyl)amino-1,6-diphenyl-3-hydroxyhexane], in the series with HIVIIIB (setting [3]), the EC50 is 72 nM. In addition, the CC50 at 120 h in series [1] is over 100000 nM. For the same molecule, the inhibition at 0.0005 µM against HIV-1 protease (pH 4.5) was 69%.

Regarding `O=C(N[C@@H](Cc1ccccc1)[C@@H](O)C[C@H](Cc1ccccc1)NC(=O)c1ccc(O)cc1)O[C@@H]1CO[C@@H]2OCC[C@@H]21` [Example 53, (2S,3S,5S)-5-(4-Hydroxy-benzoyl)amino-2-((3S,3aR,6aS)-bis-tetrahydrofuran-3-yl-oxycarbonyl)amino-1,6-diphenyl-3-hydroxyhexane], in the series on HIVIIIB (setting [3]), a half-maximal response (EC50) required 704 nM. Further, the CC50 at 120 h in series [1] is over 100000 nM. On HIV-1 protease (pH 4.5), this molecule registered an inhibition at 0.001 µM of 56%.

In the series on HIVIIIB (setting [3]), `CC(=O)Oc1ccc(C(=O)N[C@@H](Cc2ccccc2)C[C@H](O)[C@H](Cc2ccccc2)NC(=O)O[C@H]2CO[C@H]3OCC[C@H]32)cc1` [Example 54, (2S,3S,5S)-5-(4-Acetoxy-benzoyl)amino-2-((3R,3aS,6aR)-bis-tetrahydrofuran-3-yl-oxycarbonyl)amino-1,6-diphenyl-3-hydroxyhexane] displayed an EC50 of 145 nM. Moreover, the CC50 at 120 h in series [1] is over 100000 nM. This molecule yielded an inhibition at 0.0014 µM against HIV-1 protease (pH 4.5) of 50%.

Turning to `O=C(N[C@@H](Cc1ccccc1)[C@@H](O)C[C@H](Cc1ccccc1)NC(=O)c1ccc(O)cc1)O[C@H]1CO[C@H]2OCC[C@H]21` [Example 55, (2S,3S,5S)-5-(4-Hydroxy-benzoyl)amino-2-((3R,3aS,6aR)-bis-tetrahydrofuran-3-yl-oxycarbonyl)amino-1,6-diphenyl-3-hydroxyhexane], the midpoint of the response in the series on HIVIIIB (setting [3]), the EC50, lay at 11 nM. For the same molecule, the CC50 at 120 h in series [1] is 49500 nM. The molecule further displayed an inhibition at 0.0005 µM on HIV-1 protease (pH 4.5) of 82%.

For `O=C(N[C@@H](Cc1ccccc1)[C@@H](O)C[C@H](Cc1ccccc1)NC(=O)c1ccc(O)cc1Cl)O[C@H]1CO[C@H]2OCC[C@H]21` [Example 57, (2S,3S,5S)-5-(2-Chloro-4-hydroxy-benzoyl)amino-2-((3R,3aS,6aR)-bis-tetrahydrofuran-3-yl-oxycarbonyl)amino-1,6-diphenyl-3-hydroxyhexane], in the series with HIVIIIB (setting [3]), the EC50 came out at 120 nM. Further, the CC50 at 120 h in series [1] was determined as 80900 nM. The molecule further came in with an inhibition at 0.0005 µM at HIV-1 protease (pH 4.5) of 78%.

`O=C(N[C@@H](Cc1ccccc1)[C@@H](O)C[C@H](Cc1ccccc1)NC(=O)c1cccc(O)c1)O[C@@H]1CO[C@@H]2OCC[C@@H]21` [Example 58, (2S,3S,5S)-5-(3-Hydroxy-benzoyl)amino-2-((3S,3aR,6aS)-bis-tetrahydrofuran-3-yl-oxycarbonyl)amino-1,6-diphenyl-3-hydroxyhexane] yielded an EC50 in the series on HIVIIIB (setting [3]) of 2610 nM. Besides, the CC50 at 120 h in series [1] is over 100000 nM. Also, the inhibition at 0.0011 µM against HIV-1 protease (pH 4.5) turned out to be 50%.

`Cc1c(O)cccc1C(=O)N[C@@H](Cc1ccccc1)[C@@H](O)C[C@H](Cc1ccccc1)NC(=O)O[C@H]1CO[C@H]2OCC[C@H]21` [Example 59, (2S,3S,5S)-2-(3-Hydroxy-2-methyl-benzoyl)amino-5-((3R,3aS,6aR)-bis-tetrahydrofuran-3-yl-oxycarbonyl)amino-1,6-diphenyl-3-hydroxyhexane] returned an EC50 in the series on HIVIIIB (setting [3]) of 153 nM. For the same molecule, the CC50 at 120 h in series [1] is over 100000 nM. This molecule displayed an inhibition at 0.0005 µM on HIV-1 protease (pH 4.5) of 67%.

Consider `Cc1c(O)cccc1C(=O)N[C@@H](Cc1ccccc1)[C@@H](O)C[C@H](Cc1ccccc1)NC(=O)O[C@@H]1CO[C@@H]2OCC[C@@H]21` [Example 60, (2S,3S,5S)-2-(3-Hydroxy-2-methyl-benzoyl)amino-5-((3S,3aR,6aS)-bis-tetrahydrofuran-3-yl-oxycarbonyl)amino-1,6-diphenyl-3-hydroxyhexane], for which, in the series on HIVIIIB (setting [3]), the EC50 was 1120 nM. The CC50 at 120 h in series [1] was over 100000 nM. Testing at 0.0022 µM against HIV-1 protease (pH 4.5) gave an inhibition of 50%.

`Nc1ccc(Cl)c(C(=O)N[C@@H](Cc2ccccc2)[C@@H](O)C[C@H](Cc2ccccc2)NC(=O)O[C@H]2CO[C@H]3OCC[C@H]32)c1` [Example 62, (2S,3S,5S)-2-(3-Amino-6-chloro-benzoyl)amino-5-((3R,3aS,6aR)-bis-tetrahydrofuran-3-yl-oxycarbonyl)amino-1,6-diphenyl-3-hydroxyhexane] registered an EC50 in the series on HIVIIIB (setting [3]) of 81 nM. Moreover, the CC50 at 120 h in series [1] is over 100000 nM. Further, the inhibition at 0.0005 µM at HIV-1 protease (pH 4.5) was found to be 70%.

Molecule `Nc1ccc(Cl)c(C(=O)N[C@@H](Cc2ccccc2)[C@@H](O)C[C@H](Cc2ccccc2)NC(=O)O[C@@H]2CO[C@@H]3OCC[C@@H]32)c1` [Example 63, (2S,3S,5S)-2-(3-Amino-6-chloro-benzoyl)amino-5-((3S,3aR,6aS)-bis-tetrahydrofuran-3-yl-oxycarbonyl)amino-1,6-diphenyl-3-hydroxyhexane] yielded an EC50 in the series with HIVIIIB (setting [3]) of 1560 nM. Besides, in series [1], the CC50 at 120 h was over 100000 nM. The same molecule showed an inhibition at 0.0029 µM at HIV-1 protease (pH 4.5) of 50%.

Take `O=C(N[C@@H](Cc1ccccc1)C[C@H](O)[C@H](Cc1ccccc1)NC(=O)c1ccc(O)cc1)O[C@H]1CO[C@H]2OCC[C@H]21` [Example 64, (2S,3S,5S)-2-(4-Hydroxy-benzoyl)amino-5-((3R,3aS,6aR)-bis-tetrahydrofuran-3-yl-oxycarbonyl)amino-1,6-diphenyl-3-hydroxyhexane]: a half-maximal effect in the series on HIVIIIB (setting [3]) (EC50) was put at 200 nM. For the same molecule, the CC50 at 120 h in series [1] is over 100000 nM. This molecule gave an inhibition at 0.0005 µM at HIV-1 protease (pH 4.5) of 64%.

On to `O=C(N[C@@H](Cc1ccccc1)C[C@H](O)[C@H](Cc1ccccc1)NC(=O)c1ccccc1)O[C@H]1CO[C@H]2OCC[C@H]21` [Example 68, (2S,3S,5S)-2-(Benzoyl)amino-5-((3R,3aS,6aR)-bis-tetrahydrofuran-3-yl-oxycarbonyl)amino-1,6-diphenyl-3-hydroxyhexane], for which, in the series with HIVIIIB (setting [3]), the EC50 turned out to be 233 nM. Besides, in series [1], the CC50 at 120 h is over 32000 nM. At 0.0005 µM the inhibition at HIV-1 protease (pH 4.5) was 65%.

In the series on HIVIIIB (setting [3]), `Nc1ccc(C(=O)N[C@@H](Cc2ccccc2)[C@@H](O)C[C@H](Cc2ccccc2)NC(=O)O[C@H]2CO[C@H]3OCC[C@H]32)c(Cl)c1` [Example 71, (2S,3S,5S)-2-(4-Amino-2-chloro-benzoyl)amino-5-((3R,3aS,6aR)-bis-tetrahydrofuran-3-yl-oxycarbonyl)amino-1,6-diphenyl-3-hydroxyhexane] registered an EC50 of 101 nM. For the same molecule, the CC50 at 120 h in series [1] was over 100000 nM. Moreover, the inhibition at 0.0005 µM against HIV-1 protease (pH 4.5) amounted to 72%.

For the molecule `Cc1ccc(O)c(C)c1OCC(=O)N[C@@H](Cc1ccccc1)C[C@H](O)[C@H](Cc1ccccc1)NC(=O)O[C@H]1CO[C@H]2OCC[C@H]21` [Example 74, (2S,3S,5S)-5-(2,6-Dimethyl-3-hydroxy-phenoxyacetyl)amino-2-((3R,3aS,6aR)-bis-tetrahydrofuran-3-yl-oxycarbonyl)amino-1,6-diphenyl-3-hydroxyhexane], the half-maximal effective concentration (EC50) in the series on HIVIIIB (setting [3]) worked out at 7 nM. The CC50 at 120 h in series [1] amounted to 50500 nM. On HIV-1 protease (pH 4.5), this molecule showed an inhibition at 0.0005 µM of 89%.

Turning to `CC(C)c1nc(CN(C)C(=O)N[C@H](C(=O)N[C@@H](Cc2ccccc2)C[C@H](O)[C@H](Cc2ccccc2)NC(=O)OCc2cncs2)C(C)C)cs1` [ritonavir], in series [2], the “blood levels of the co-administered compound of this invention” value was “increases blood levels”, the “half-life of the co-administered compound of this invention” value is “increases half-life” and the “time to peak plasma concentration of the co-administered compound of this invention” value is listed as “increases the time to peak plasma concentration”.

The record behind these values is patent US5905068A, “Retroviral protease inhibiting compounds” (Abbott Laboratories, priority 1996, dated 1999).
